In PubChem BioAssay (NCI):
Where “and” joins values, the source holds several entries; their conditions need not be identical. Equal values may be shown once.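 96-well plates; 48 h exposure; 5 concentrations. Endpoints by linear interpolation between flanking doses. Not reached: highest tested concentration assigned. GI50 is the concentration that inhibits growth by half. The concentration for full growth arrest is given as TGI.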

Experiments:
Assay in all cases: inhibition of tumour cell growth, NCI panel, 48 h; in the data active = GI50 below about 0.43 µM; inactive = the rest
HOP-62 NSCLC = tested on: HOP-62 NSCLC
SNB-75 CNS = tested on: SNB-75 CNS
OVCAR-5 ovarian = tested on: OVCAR-5 ovarian
U251 CNS = tested on: U251 CNS
786-0 renal = tested on: 786-0 renal
KM12 colon = tested on: KM12 colon
SNB-19 CNS = tested on: SNB-19 CNS
A498 renal = tested on: A498 renal
UACC-62 melanoma = tested on: UACC-62 melanoma
A549 NSCLC = tested on: A549 NSCLC
RXF 393 renal = tested on: RXF 393 renal
HCT-15 colon = tested on: HCT-15 colon
SF-268 CNS = tested on: SF-268 CNS
SW-620 colon = tested on: SW-620 colon
EKVX NSCLC = tested on: EKVX NSCLC
OVCAR-4 ovarian = tested on: OVCAR-4 ovarian
K-562 leukemia = tested on: K-562 leukemia
HL-60(TB) leukemia = tested on: HL-60(TB) leukemia
UO-31 renal = tested on: UO-31 renal
DMS 273 small cell lung = tested on: DMS 273 small cell lung
SR leukemia = tested on: SR leukemia
XF 498 CNS = tested on: XF 498 CNS
M14 melanoma = tested on: M14 melanoma
NCI-H522 lung = tested on: NCI-H522 lung
UACC-257 melanoma = tested on: UACC-257 melanoma
ACHN renal = tested on: ACHN renal
HCC-2998 colon = tested on: HCC-2998 colon
NCI-H226 lung = tested on: NCI-H226 lung
SK-MEL-5 melanoma = tested on: SK-MEL-5 melanoma
SK-OV-3 ovarian = tested on: SK-OV-3 ovarian
LXFL 529 NSCLC = tested on: LXFL 529 NSCLC
HCT-116 colon = tested on: HCT-116 colon
DLD-1 colon = tested on: DLD-1 colon
NCI-H460 lung = tested on: NCI-H460 lung
SNB-78 CNS = tested on: SNB-78 CNS
MALME-3M melanoma = tested on: MALME-3M melanoma
IGROV1 ovarian = tested on: IGROV1 ovarian
LOX IMVI melanoma = tested on: LOX IMVI melanoma
OVCAR-8 ovarian = tested on: OVCAR-8 ovarian
COLO 205 colon = tested on: COLO 205 colon
SN12C renal = tested on: SN12C renal
CAKI-1 renal = tested on: CAKI-1 renal
HT29 colon = tested on: HT29 colon
CCRF-CEM leukemia = tested on: CCRF-CEM leukemia
SF-539 CNS = tested on: SF-539 CNS
HOP-92 NSCLC = tested on: HOP-92 NSCLC
SK-MEL-2 melanoma = tested on: SK-MEL-2 melanoma
SK-MEL-28 melanoma = tested on: SK-MEL-28 melanoma
HOP-18 NSCLC = tested on: HOP-18 NSCLC
SF-295 CNS = tested on: SF-295 CNS
KM20L2 colon = tested on: KM20L2 colon
OVCAR-3 ovarian = tested on: OVCAR-3 ovarian
NCI-H23 lung = tested on: NCI-H23 lung
TK-10 renal = tested on: TK-10 renal
RPMI-8226 leukemia = tested on: RPMI-8226 leukemia
MOLT-4 leukemia = tested on: MOLT-4 leukemia
M19-MEL melanoma = tested on: M19-MEL melanoma
BT-549 breast = tested on: BT-549 breast
DU-145 prostate = tested on: DU-145 prostate
MDA-MB-435 = tested on: MDA-MB-435
HS 578T breast = tested on: HS 578T breast
PC-3 prostate = tested on: PC-3 prostate
MDA-N = tested on: MDA-N
MCF7 breast = tested on: MCF7 breast
NCI/ADR-RES ovarian = tested on: NCI/ADR-RES ovarian
T-47D breast = tested on: T-47D breast
MDA-MB-231 breast = tested on: MDA-MB-231 breast

CC1=CC2C(=O)N(c3ccccc3)C(=O)C2CC1n1[nH]c(=O)n(Cc2ccccc2)c1=O (stereo unspecified)
> 100 µM: TGI (HOP-62 NSCLC) | TGI (SNB-75 CNS) | TGI (OVCAR-5 ovarian) | TGI (U251 CNS) | TGI (786-0 renal) | TGI (KM12 colon) | TGI (SNB-19 CNS) | TGI (A498 renal) | TGI (UACC-62 melanoma) | TGI (A549 NSCLC) | TGI (RXF 393 renal) | TGI (HCT-15 colon) | TGI (SF-268 CNS) | TGI (SW-620 colon) | TGI (EKVX NSCLC) | TGI (OVCAR-4 ovarian) | TGI (K-562 leukemia) | TGI (HL-60(TB) leukemia) | TGI (UO-31 renal) | TGI (DMS 273 small cell lung) | TGI (SR leukemia) | TGI (XF 498 CNS) | TGI (M14 melanoma) | TGI (NCI-H522 lung) | TGI (UACC-257 melanoma) | TGI (ACHN renal) | TGI (HCC-2998 colon) | TGI (NCI-H226 lung) | TGI (SK-MEL-5 melanoma) | TGI (SK-OV-3 ovarian) | TGI (LXFL 529 NSCLC) | TGI (HCT-116 colon) | TGI (DLD-1 colon) | TGI (NCI-H460 lung) | TGI (SNB-78 CNS) | TGI (MALME-3M melanoma) | TGI (IGROV1 ovarian) | TGI (LOX IMVI melanoma) | TGI (OVCAR-8 ovarian) | TGI (COLO 205 colon) | TGI (SN12C renal) | TGI (CAKI-1 renal) | TGI (HT29 colon) | TGI (CCRF-CEM leukemia) | TGI (SF-539 CNS) | TGI (HOP-92 NSCLC) | TGI (SK-MEL-2 melanoma) | TGI (SK-MEL-28 melanoma) | TGI (HOP-18 NSCLC) | TGI (SF-295 CNS) | TGI (KM20L2 colon) | TGI (OVCAR-3 ovarian) | TGI (NCI-H23 lung) | TGI (TK-10 renal)

COc1ccc(/C(Cl)=C(\CN(C)C)c2ccc(OC)c(OC)c2)cc1OC
> 100 µM: TGI (HOP-62 NSCLC) | TGI (SNB-75 CNS) | TGI (OVCAR-5 ovarian) | TGI (U251 CNS) | TGI (786-0 renal) | TGI (KM12 colon) | TGI (SNB-19 CNS) | TGI (A498 renal) | TGI (RPMI-8226 leukemia) | TGI (UACC-62 melanoma) | TGI (A549 NSCLC) | TGI (HCT-15 colon) | TGI (SF-268 CNS) | TGI (SW-620 colon) | TGI (EKVX NSCLC) | TGI (K-562 leukemia) | TGI (HL-60(TB) leukemia) | TGI (UO-31 renal) | TGI (DMS 273 small cell lung) | TGI (SR leukemia) | TGI (XF 498 CNS) | TGI (MOLT-4 leukemia) | TGI (M14 melanoma) | TGI (NCI-H522 lung) | TGI (UACC-257 melanoma) | TGI (ACHN renal) | TGI (M19-MEL melanoma) | TGI (HCC-2998 colon) | TGI (NCI-H226 lung) | TGI (SK-MEL-5 melanoma) | TGI (SK-OV-3 ovarian) | TGI (LXFL 529 NSCLC) | TGI (DLD-1 colon) | TGI (NCI-H460 lung) | TGI (MALME-3M melanoma) | TGI (IGROV1 ovarian) | TGI (LOX IMVI melanoma) | TGI (OVCAR-8 ovarian) | TGI (COLO 205 colon) | TGI (SN12C renal) | TGI (CAKI-1 renal) | TGI (HT29 colon) | TGI (CCRF-CEM leukemia) | TGI (SF-539 CNS) | TGI (SK-MEL-2 melanoma) | TGI (SK-MEL-28 melanoma) | TGI (HOP-18 NSCLC) | TGI (SF-295 CNS) | TGI (KM20L2 colon) | TGI (OVCAR-3 ovarian) | TGI (NCI-H23 lung) | TGI (TK-10 renal)
> 28.6 µM: TGI (RXF 393 renal)
inactive: GI50 (TK-10 renal) > 27.9 µM
> 46.4 µM: TGI (HCT-116 colon)
97.9 µM and > 100 µM: TGI (SNB-78 CNS)

O=C1C(c2ccc([N+](=O)[O-])cc2)=C(Cl)C(=O)c2c(O)cccc21
36.6 µM: TGI (NCI-H23 lung)
32.4 µM: TGI (COLO 205 colon)
> 59.3 µM: TGI (NCI-H226 lung)
39.9 µM: TGI (SN12C renal)
34.7 µM: TGI (TK-10 renal)
57.3 µM: TGI (PC-3 prostate)
46.6 µM: TGI (EKVX NSCLC)
54 µM: TGI (HCT-15 colon)
> 54.8 µM: TGI (SK-MEL-5 melanoma)
19.1 µM: TGI (UO-31 renal)
46.5 µM: TGI (M14 melanoma)
49.6 µM: TGI (SNB-19 CNS)
50.2 µM: TGI (CAKI-1 renal)
49.8 µM: TGI (SF-268 CNS)
23.2 µM: TGI (LXFL 529 NSCLC)
31.9 µM: TGI (MDA-MB-435)
43.5 µM: TGI (HT29 colon)
32.6 µM: TGI (U251 CNS) | TGI (LOX IMVI melanoma) | TGI (OVCAR-3 ovarian)
39.6 µM: TGI (SF-539 CNS)
> 56.6 µM: TGI (HCT-116 colon)
98.9 µM: TGI (SF-295 CNS)
42.4 µM: TGI (IGROV1 ovarian)
63.8 µM: TGI (SNB-78 CNS)
33 µM: TGI (ACHN renal) | TGI (HOP-92 NSCLC)
> 62.6 µM: TGI (KM12 colon)
66.2 µM: TGI (NCI/ADR-RES ovarian)
96.9 µM: TGI (SNB-75 CNS)
32.9 µM: TGI (UACC-257 melanoma)
22.4 µM: TGI (XF 498 CNS)
34.8 µM: TGI (MALME-3M melanoma)
59.3 µM: TGI (A498 renal)
37.7 µM: TGI (MCF7 breast)
33.9 µM: TGI (SK-MEL-28 melanoma)
25.3 µM: TGI (DLD-1 colon)
19.6 µM: TGI (HOP-18 NSCLC)
65.9 µM: TGI (HS 578T breast)
> 100 µM: TGI (HOP-62 NSCLC) | TGI (OVCAR-5 ovarian) | TGI (RPMI-8226 leukemia) | TGI (A549 NSCLC) | TGI (K-562 leukemia) | TGI (HL-60(TB) leukemia) | TGI (DMS 273 small cell lung) | TGI (SR leukemia) | TGI (MOLT-4 leukemia) | TGI (HCC-2998 colon) | TGI (SK-OV-3 ovarian) | TGI (NCI-H460 lung) | TGI (CCRF-CEM leukemia)
52.6 µM: TGI (T-47D breast)
34.5 µM: TGI (MDA-N)
15.5 µM: TGI (SW-620 colon)
31.8 µM: TGI (MDA-MB-231 breast)
28.9 µM: TGI (786-0 renal)
32.1 µM: TGI (BT-549 breast) | TGI (OVCAR-4 ovarian)
21.6 µM: TGI (NCI-H522 lung)
34.3 µM: TGI (SK-MEL-2 melanoma)
29.1 µM: TGI (RXF 393 renal)
36 µM: TGI (M19-MEL melanoma)
42.7 µM: TGI (DU-145 prostate)
35.6 µM: TGI (UACC-62 melanoma)
> 86.4 µM: TGI (OVCAR-8 ovarian)
